Laboratory results from PMC6921407, “Novel coumarins active against Trypanosoma cruzi and toxicity assessment using the animal model Caenorhabditis elegans” (BMC Pharmacology & Toxicology, 2019).
Like-named read-outs stand apart in the source and are kept apart here.

What was measured:
[1] = tested on: Trypanosoma cruzi epimastigotes (Tulahuen 2 strain); assay: Anti-Trypanosoma cruzi activity: growth inhibition of epimastigotes (absorbance at 600 nm, day 5); assay type: cell-based; settings: T. cruzi epimastigotes; for GI (%) / percentage of growth inhibition (PGI): test concentration not given
Procedure: Trypanosoma cruzi epimastigotes (Tulahuen 2 strain) were grown at 28 °C in an axenic milieu (BHI-Tryptose) supplemented with 5% fetal bovine serum (FBS), as previously described. Cells from a 10-day-old culture (stationary phase) were inoculated into 50 mL of fresh culture milieu to give an initial concentration of 1 × 10^6 cells per mL. Cell growth was followed by measuring the absorbance of the culture at 600 nm every day. Before inoculation, the milieu was supplemented with a given amount of the coumarin from a freshly prepared stock solution in DMSO (25 mM). The final concentration of DMSO in the culture medium never exceeded 0.4%, and the control was run in the presence of 0.4% DMSO and in the absence of drugs. […] Nifurtimox (Nfx) was used as the reference trypanocidal drug. The percentage of growth inhibition (PGI) was calculated as follows: PGI (%) = {1 - [(Ap - A0p) / (Ac - A0c)]} × 100, where Ap = […] of the culture containing the studied compound at day 5; […] = […] of the culture containing the studied compound just after addition of the inocula (day 0); Ac = […] of the culture in the absence of the studied compound (control) at day 5; […] = […] in the absence of the studied compound at day 0. […] At day 5, the absorbance of the culture was measured and related to the control.

[2] = Trypanosoma cruzi, TULAHUEN, 120 h, read-out: IC50

SMILES: O=c1cc(CNc2ccccc2)c2cc(Cl)ccc2o1 [9a]
- melting point: 187 to 188 °C
- IC50 ([1]; read-out: IC50): < 10 µM
- IC50 [1, 2]: 9.1 ± 1.6 µM

SMILES: Cc1ccc(NCc2cc(=O)oc3ccc(Cl)cc23)cc1 [9b]
- melting point: 201 °C
- GI (%) / percentage of growth inhibition (PGI) [1]: < 20.7%
- IC50 [1, 2]: > 100 µM

SMILES: O=c1cc(CNc2ccc(Cl)cc2)c2cc(Cl)ccc2o1 [9c]
- melting point: 205 to 207 °C
- GI (%) / percentage of growth inhibition (PGI) [1]: < 20.4%
- IC50 [1, 2]: > 100 µM

SMILES: O=c1cc(CNc2ccc(Br)cc2)c2cc(Cl)ccc2o1 [9d]
- melting point: 231 to 232 °C
- GI (%) / percentage of growth inhibition (PGI) [1]: 1.9 ± 0.8%
- IC50 [1, 2]: > 100 µM

SMILES: COc1ccc(NCc2cc(=O)oc3ccc(Cl)cc23)cc1 [9e]
- melting point: 192 to 194 °C
- GI (%) / percentage of growth inhibition (PGI) [1]: < 29.3%
- IC50 [1, 2]: > 100 µM

SMILES: Cc1cc(C)cc(NCc2cc(=O)oc3ccc(Cl)cc23)c1 [9f]
- melting point: 192 to 194 °C
- GI (%) / percentage of growth inhibition (PGI) [1]: 6.1 ± 1.3%
- IC50 [1, 2]: > 100 µM

SMILES: CN(Cc1cc(=O)oc2ccc(Cl)cc12)c1ccccc1 [9g]
- melting point: 200 to 201 °C
- IC50 [1, 2]: 14.2 ± 1.9 µM

SMILES: CN(Cc1cc(=O)oc2ccc(Cl)cc12)c1ccc(Cl)cc1 [9h]
- melting point: 185 to 186 °C
- GI (%) / percentage of growth inhibition (PGI) [1]: < 48.4%
- IC50 [1, 2]: > 25 µM

SMILES: O=c1cc(CN2CCCCC2)c2cc(Cl)ccc2o1 [9i]
- melting point: 181 to 182 °C
- GI (%) / percentage of growth inhibition (PGI) [1]: 15.9 ± 0.9%
- IC50 [1, 2]: > 100 µM

SMILES: O=c1cc(CN2CCNCC2)c2cc(Cl)ccc2o1 [9j]
- melting point: > 300 °C
- GI (%) / percentage of growth inhibition (PGI) [1]: < 23.6%
- IC50 [1, 2]: > 31 µM

SMILES: O=c1cc(CN2CCOCC2)c2cc(Cl)ccc2o1 [9k]
- melting point: 177 to 178 °C
- GI (%) / percentage of growth inhibition (PGI) [1]: < 9.6%
- IC50 [1, 2]: > 100 µM

SMILES: O=c1cc(CN2CCSCC2)c2cc(Cl)ccc2o1 [9l]
- melting point: 152 to 153 °C
- GI (%) / percentage of growth inhibition (PGI) [1]: 29 ± 0.4%
- IC50 [1, 2]: > 100 µM

SMILES: O=c1cc(CN2CCS(=O)(=O)CC2)c2cc(Cl)ccc2o1 [9m]
- melting point: 162 to 164 °C
- GI (%) / percentage of growth inhibition (PGI) [1]: < 59.9%
- IC50 [1, 2]: > 25 µM

SMILES: O=c1cc(CN2CCC(c3ccccc3)CC2)c2cc(Cl)ccc2o1 [9n]
- melting point: 163 to 164 °C
- GI (%) / percentage of growth inhibition (PGI) [1]: < 51.5%
- IC50 [1, 2]: > 25 µM

SMILES: Cc1ccc2oc(=O)cc(CNc3ccccc3)c2c1 [10a]
- melting point: 164 to 165 °C
- GI (%) / percentage of growth inhibition (PGI) [1]: 38.5 ± 2.6%
- IC50 [1, 2]: > 100 µM

SMILES: Cc1ccc(NCc2cc(=O)oc3ccc(C)cc23)cc1 [10b]
- melting point: 188 to 189 °C
- GI (%) / percentage of growth inhibition (PGI) [1]: 29.9 ± 0.9%
- IC50 [1, 2]: > 100 µM

SMILES: Cc1ccc2oc(=O)cc(CNc3ccc(Cl)cc3)c2c1 [10c]
- melting point: 180 to 181 °C
- GI (%) / percentage of growth inhibition (PGI) [1]: 18.5 ± 1.8%
- IC50 [1, 2]: > 100 µM

SMILES: Cc1ccc2oc(=O)cc(CNc3ccc(Br)cc3)c2c1 [10d]
- melting point: 178 to 179 °C
- GI (%) / percentage of growth inhibition (PGI) [1]: < 33.1%
- IC50 [1, 2]: > 100 µM

SMILES: COc1ccc(NCc2cc(=O)oc3ccc(C)cc23)cc1 [10e]
- melting point: 169 to 170 °C
- GI (%) / percentage of growth inhibition (PGI) [1]: 53.2 ± 1.3%
- IC50 [1, 2]: > 25 µM

SMILES: Cc1cc(C)cc(NCc2cc(=O)oc3ccc(C)cc23)c1 [10f]
- melting point: 179 to 180 °C
- GI (%) / percentage of growth inhibition (PGI) [1]: 32.5 ± 0.9%
- IC50 [1, 2]: > 100 µM

SMILES: Cc1ccc2oc(=O)cc(CN(C)c3ccc(Cl)cc3)c2c1 [10h]
- melting point: 173 to 174 °C
- GI (%) / percentage of growth inhibition (PGI) [1]: < 59.2%
- IC50 [1, 2]: > 25 µM

SMILES: Cc1ccc2oc(=O)cc(CN3CCCCC3)c2c1 [10i]
- GI (%) / percentage of growth inhibition (PGI) [1]: < 15.9%
- IC50 [1, 2]: > 100 µM

SMILES: Cc1ccc2oc(=O)cc(CN3CCNCC3)c2c1 [10j]
- melting point: > 300 °C
- IC50 [1]: Inactive
- GI (%) / percentage of growth inhibition (PGI) [1]: Inactive

SMILES: CC1CS(=O)(=O)CCN1/N=C/c1ccc([N+](=O)[O-])o1 (centres unmarked) [Nifurtimox, reference compound]
- IC50 [1, 2]: 5 ± 1 µM
